Laboratory results reported in patent US10513529B2, “1,2,4-triazolo-[3,4-b]-1,3,4-thiadiazole derivatives” (GALENICA S.A., priority 2016, dated 2019).

Experiments:
in vivo = settings: both sexes, mouse, in vivo, ip; C57BI/6 mice, acute toxicity
Method: The acute toxicity of the compounds was assessed from lethality by testing different concentrations, starting at 100mg/kg. […] For intraperitoneal (i.p.) treatment, stock solutions of the tested compounds were prepared immediately before use. They were suspended in corn oil in the desired concentration following initial dissolution in 10% dimethylsulfoxide (DMSO). C57BI/6 male and female were used for toxicity studies. Mice were kept under conditions of constant temperature and humidity in sterile cages with water and food.

[1] = test system: all 9 human cancer cell lines; assay: MTT cytostatic-cytotoxic activity, all 9 human cancer cell lines; assay type: cell-based; settings: for IC50: Homo sapiens, read-out: (cytotoxic); for GI50: in all 9 human cancer cell lines, read-out: IG50 (cytostatic)
[2] = test system: UWB1.289 + BRCA1 human ovarian cancer cell line; assay: MTT cytostatic-cytotoxic activity, UWB1.289+BRCA1; assay type: cell-based; settings: UWB1.289+BRCA1, 48 h treatment
Method: Human ovarian adenocarcinoma cells, derived from UBWB1,289, in which the presence of the BRCA1 gene has been restored. […] They are not susceptible to ionizing radiation and radioimmune chemical agents (e.g., alkylating agents). Also, UWB1.289 cells have mutated the p53 tumor suppressor gene, and are positive for the expression of cytokeratin 7 (CK-7), calretinin and Wilms' tumor protein (WT).
(§1) All cancer cell lines are stored in a liquid nitrogen tank in 2.5 ml cryovials (Corning-Costar, Cambridge, Mass.). DMSO (dimethylsulfoxide) act as a cryoprotectant and is added to prevent the formation of ice crystals which may lyse the cells. The Cells were grown as monolayer cultures in T-75 flasks (Corning-Costar, Cambridge, Mass.) and maintained at 37° C. in 5% CO2 incubator & 100% relative humidity. The cultures medium used are McCoy's 5a Medium, supplemented with 10% fetal bovine serum (FBS, Gibco) and 1% antibiotics (100 IU/ml penicillin/100 µg/ml streptomycin), sterilized by filtration (Corning-Costar filter, diameter 0.2 μm, RPMI-1640 and 50% RPMI-1640 (Catalog No 30-2001) plus 50% Mammary Epithelial Growth Medium (MEGM), supplemented with 10% fetal bovine serum (FBS, Gibco) and 1% antibiotics (100 IU/ml penicillin/100 μg/ml streptomycin). The passage is performed every 3-4 to days as follows: Cells are washed with sterile PBS (Phosphate buffered saline): 8 g/l NaCl, 0,2 g/l KCl, 1,15 g/l Na2HPO4καl 0,2 g/l KH2PO4. pH:7,4), add 2-3 ml 0.05% trypsin (Gibco 1:250) and 0.02% EDTA to cover the monolayer and incubate the flask at 3TC for 5-10 minutes. Trypsin-EDTA, is used mainly to detach the cells from the flask and prepare a single cell suspension. Finally, the number of cells can be determined by direct counting using a Neubauer chamber and cell viability is determined by staining the cells with trypan blue.
(§2) In the experimental study the in vitro effect of the compound type (I) was evaluated against ovarian cancer cell lines UWB1.289, UWB1.289+BRCA1 Kai SKOV-3.The cells were plated in 96-well plate (MTP) at a density of 1×10^4cells/m1 per well and maintained for 72 h at 3TC in a 5% CO2 incubator and grown as monolayers. The selection of the initial number of cells was made according to the rate of proliferation of the cell line, in order the cells throughout the experiment are in an exponential (log) growth phase. After 24 hours, cells were treated with 1-100 μmol/l of the tested compounds for 48 h. Experiments were carried out using triplicate wells. The viability of cultured cells was estimated by an (3-(4,5-imethylthiazol-2-yl)-2,5-diphenyltetrazolium bromide (MTT) metabolic assay as described previously (Finlay G J, Wilson W R and Baguley B C: Comparison of in vitro activity of cytotoxic drugs towards human carcinoma and leukaemia cell lines. Eur J Cancer Clin Oncol 22: 655-662, 1986; Alley M C, Scudiero D A, Monks A, Hursey M L, Czerwinski M J, Fine D L, et al. Feasibility of drug screening with panels of human tumor cell lines using a microculture tetrazolium assay. Cancer Res 1988; 48:589-601). MTT (Sigma, St Louis, Mo., USA) was dissolved in PBS in a concentration of 5 mg/ml, filter sterilized, and stored at 4° C. MTT (50 μl of stock solution) was added to each culture and incubated for 3 h at 3TC to allow metabolization. Formazan crystals were solubilized by DMSO (100 μl). Absorbance of the converted dye was measured at a wavelength of 540nm on ELISA reader (BioTek, Winooski, Vt., USA).
(§3) GI50: The mean concentration that causes 50% inhibition of cell growth (Growth Inhibition 50%). The calculation of the value is based on the formula: (Tt72x)−(Ct24)/(Ct72)-(Ct24)×100=50
(§4) TGI: The mean concentration that causes 100% inhibition of cell growth (Total Growth Inhibition). The value is calculated according to the formula: (Tt72x)−(Ct24)/(Ct72)−(Ct24)×100=0
(§5) IC50: The mean concentration that kills 50% of the cells (Inhibition Concentration 50%). The value is calculated according to the formula: (Tt72x)−(Ct24)/(Ct24)×100=[…]

[3] = test system: OVCAR-3 human ovarian cancer cell line; assay: MTT cytostatic-cytotoxic activity, OVCAR-3; assay type: cell-based; settings: OVCAR-3, 48 h treatment
Method: (§6) SKOV-3 (SKOV-3) (ATCC HTB 77) and OVCAR-3 (ATCC® HTB-161™)
(§7) Human ovarian adenocarcinoma cells, which are grown easily in monolayer culture with epithelial-like morphology. SKOV-3 are resistant to tumor necrosis factor (TNF) and to other cytotoxic drugs such as cisplatin, and adriamycin, while OVCAR-3 are resistant to adriamycin, cisplatin and melphalan. These cell lines express androgens, estrogens and progesterone receptors. When SKOV-3 or OVCAR-3 cells are subcutaneously implanted in nude mice, SCID mice, a moderately differentiated tumor develops, and the resulting model resembles primary ovarian adenocarcinoma in humans.
as §1, §2, §3
(§8) TGI: The mean concentration that causes 100% inhibition of cell growth (Total Growth Inhibition). […]

[4] = test system: SKOV-3 human ovarian cancer cell line; assay: MTT cytostatic-cytotoxic activity, SKOV-3; assay type: cell-based; settings: SKOV-3, 48 h treatment
Method: as §6, §7, §1, §2, §3, §8

[5] = test system: UWB1.289 human ovarian cancer cell line (mutant BRCA1); assay: MTT cytostatic-cytotoxic activity, UWB1.289; assay type: cell-based; settings: UWB1.289, 48 h treatment
Method: Also, UWB1.289 cells have mutated the p53 tumor suppressor gene and positive Wilms' tumor protein (WT) expression, have no functional BRCA1 gene and are positive for the expression of cytokeratin 7 (CK-7), calretinin and Wilms' tumor protein (WT). Finally they are sensitive to ionizing radiation.
as §1, §2, §3, §4, §5

[6] = test system: MCF-7 human breast cancer cell line; assay: MTT cytostatic-cytotoxic activity, MCF-7; assay type: cell-based; settings: MCF-7, 48 h treatment
[7] = test system: T-47D human breast cancer cell line; assay: MTT cytostatic-cytotoxic activity, T-47D; assay type: cell-based; settings: 48 h treatment
[8] = test system: PC-3 human hormone-resistant prostate cancer cell line; assay: MTT cytostatic-cytotoxic activity, PC-3; assay type: cell-based; settings: PC-3, 48 h treatment
[9] = test system: MOLT-4 human acute T-leukemia cell line; assay: MTT cytostatic-cytotoxic activity, MOLT-4; assay type: cell-based; settings: MOLT-4, 48 h treatment
[10] = test system: A-549 human lung carcinoma cell line; assay: MTT cytostatic-cytotoxic activity, A-549; assay type: cell-based; settings: A-549, 48 h treatment

`COc1cc(Cc2nnc3sc(CCCc4ccccc4)nn23)c(S(=O)(=O)N(C)C)cc1OC` [TS52, 3-[2-(N,N-dimethylsulfamoyl)-4,5-dimethoxybenzyl]-6-(3-phenylpropyl)-1,2,4-triazolo[3,4-b]-1,3,4-thiazole] gave an LD50 (in vivo) of over 500 mg/kg, an IC50 [1] of over 100 µM and a GI50 [1] of under 100 µM.
`COc1cc(Cc2nnc3sc(/C=C/c4cccc(F)c4)nn23)c(S(=O)(=O)N(C)C)cc1OC` [TS29, 3-[2-(N,N-dimethylsulfamoyl)-4,5dimethoxybenzyl]-6-(E)-3-fluorostyryl-1,2,4-triazolo[3,4-b]-1,3,4-thiazole] showed a GI50 [2] of 10 µM, a TGI [2] of 64 µM and an IC50 ([2]; kills 50% of the cells) of over 100 µM. It also gave a GI50 [3] of 74 µM, a TGI [3] of over 100 µM and an IC50 ([3]; kills 50% of the cells) of over 100 µM. It also gave a GI50 [4] of 45 µM, a TGI [4] of 84 µM and an IC50 ([4]; kills 50% of the cells) of over 100 µM. For the same compound, the GI50 [5] was 10 µM, the TGI [5] was 67 µM and the IC50 ([5]; kills 50% of the cells) was over 100 µM. The GI50 [6] was 66 µM, the TGI [6] was over 100 µM and the IC50 ([6]; kills 50% of the cells) was over 100 µM. It also gave a GI50 [7] of 48 µM, a TGI [7] of 86 µM and an IC50 ([7]; kills 50% of the cells) of over 100 µM. It also gave a GI50 [8] of 85 µM, a TGI [8] of over 100 µM and an IC50 ([8]; kills 50% of the cells) of over 100 µM. For the same compound, the GI50 [9] was 61 µM, the TGI [9] was over 100 µM and the IC50 ([9]; kills 50% of the cells) was over 100 µM. The GI50 [10] was 30 µM, the TGI [10] was 71 µM and the IC50 ([10]; kills 50% of the cells) was over 100 µM.
For `COc1ccc(CCc2nn3c(Cc4cc(OC)c(OC)cc4S(=O)(=O)N(C)C)nnc3s2)cc1` [TS55, 3-[2-(N,N-dimethylsulfamoyl)-4,5-dimethoxybenzyl]-6-[2-(4-methoxyphenyl)ethyl]-1,2,4-triazolo[3,4-b]-1,3,4-thiazole], the LD50 (in vivo) was over 500 mg/kg, the IC50 [1] was over 100 µM and the GI50 [1] was under 100 µM.
`COc1cc(Cc2nnc3sc(-c4cccc(N)c4)nn23)c(S(=O)(=O)N(C)C)cc1OC` [TS70, 3-[2-(N,N-dimethylsulfamoyl)-4,5-dimethoxybenzyl]-6-(3-aminophenyl)-1,2,4-triazolo[3,4-b]-1,3,4-thiazole] showed an LD50 (in vivo) of over 500 mg/kg, an IC50 [1] of over 100 µM and a GI50 [1] of under 100 µM.
`COc1ccc(Cc2nn3c(Cc4cc(OC)c(OC)cc4S(=O)(=O)N(C)C)nnc3s2)cc1OC` [TS51, 3-[2-(N,N-dimethylsulfamoyl)-4,5-dimethoxybenzyl]-6-(3,4-dimethoxybenzyl)-1,2,4-triazolo[3,4-b]-1,3,4-thiazole] showed an LD50 (in vivo) of over 500 mg/kg, an IC50 [1] of over 100 µM and a GI50 [1] of under 100 µM.
Work on `COc1cc(Cc2nnc3sc(-c4cc(OC)c(OC)c(OC)c4)nn23)c(S(=O)(=O)N(C)C)cc1OC` [TS59, 3-[2-(N,N-dimethylsulfamoyl)-4,5-dimethoxybenzyl]-6-(3,4,5-trimethoxyphenyl)-1,2,4-triazolo[3,4-b]-1,3,4-thiazole] yielded an LD50 (in vivo) of over 500 mg/kg, an IC50 [1] of over 100 µM and a GI50 [1] of under 100 µM.
In the case of `COc1cc(Cc2nnc3sc(COc4ccccc4)nn23)c(S(=O)(=O)N(C)C)cc1OC` [TS56, 3-[2-(N,N-dimethylsulfamoyl)-4,5-dimethoxybenzyl]-6-phenoxymethyl-1,2,4-triazolo[3,4-b]-1,3,4-thiazole], the LD50 (in vivo) is reported as over 500 mg/kg, the IC50 [1] is reported as over 100 µM and the GI50 [1] is reported as under 100 µM.
With `COc1cc(Cc2nnc3sc(-c4ccc([N+](=O)[O-])cc4Cl)nn23)c(S(=O)(=O)N(C)C)cc1OC` [TS61, 3-[2-(N,N-dimethylsulfamoyl)-4,5-dimethoxybenzyl]-6-(2-chloro-4-nitrophenyl)-1,2,4-triazolo[3,4-b]-1,3,4-thiazole] the LD50 (in vivo) was over 500 mg/kg, the IC50 [1] was over 100 µM and the GI50 [1] was under 100 µM.
In the case of `COc1cccc(Cc2nn3c(Cc4cc(OC)c(OC)cc4S(=O)(=O)N(C)C)nnc3s2)c1` [TS58, 3-[2-(N,N-dimethylsulfamoyl)-4,5-dimethoxybenzyl]-6-(3-methoxybenzyl)-1,2,4-triazolo[3,4-b]-1,3,4-thiazole], the LD50 (in vivo) is reported as over 500 mg/kg, the IC50 [1] is reported as over 100 µM and the GI50 [1] is reported as under 100 µM.
In the case of `COc1ccccc1CCc1nn2c(Cc3cc(OC)c(OC)cc3S(=O)(=O)N(C)C)nnc2s1` [TS54, 3-[2-(N,N-dimethylsulfamoyl)-4,5-dimethoxybenzyl]-6-[2-(2-methoxyphenyl)ethyl]-1,2,4-triazolo[3,4-b]-1,3,4-thiazole], the LD50 (in vivo) is reported as over 500 mg/kg, the IC50 [1] is reported as over 100 µM and the GI50 [1] is reported as under 100 µM.
